Reference: patent US20170128389A1, “Paediatric Compositions For Treating Multiple Sclerosis” (Novartis AG, priority 2008, published 2017)

Assays:
[1] = tested on: patients with relapsing multiple sclerosis (MS); assay: Hamburg Quality of Life Questionnaire in MS (HAQUAMS) scores, core 6-month study and extension; format: in vivo, human
Procedure: Hamburg Quality of Life Questionnaire in MS (HAQUAMS) scores were recorded at baseline, month 3 (M3), and M6 during a core 6-month study, and M12 and M24 during an extension of the core study. The HAQUAMS consists of 38 items, 28 of which contribute to five sub-domains. Domain scores range from 1 to 5, with lower scores indicating improved HRQL. A total score was generated by averaging the five sub-domain scores.

[2] = tested on: patients with relapsing multiple sclerosis (MS); assay: long-term extension of the study (up to 36 months, FTY720 once-daily)
Excerpt: All patients who subsequently opted to enter a long-term extension of the study received FTY720 once-daily for up to 38 months.

[3] = tested on: lymphocyte counts / tolerability in adolescents; assay: open-label, single-dose 28-day pharmacokinetic and safety/tolerability study in pediatric patients; format: in vivo, human
Procedure: An open-label, single-dose 28-day pharmacokinetic and safety/tolerability study of FTY720 in pediatric is performed (8 patients aged 11-17 years, 5 patients aged 8-10 years and 5 patients aged 1-5 years). The contents of 0.5 mg capsules is dispersed in water and administered as an oral solution at a dose of 0.07 mg/kg to a maximum dose of 5 mg. The dose is administered by study personnel either directly from the glass mixing vial or with an oral syringe followed by drinking 2 water-rinse cycles of the vial or syringe and an additional 50-200 mL of water.
Blood samples are collected for 28 days postdose and analyzed for fingolimod and fingolimod-phosphate blood concentrations by validated liquid chromatography methods with tandem mass spectrometry. Standard noncompartmental pharmacokinetic parameters are derived. Absolute lymphocyte counts are measured over 28 days to characterize the effect of FTY720 on lymphocyte decrease and recovery. Heart rate is recorded frequently for 24 hours postdose.
Safety and tolerability assessments includes information on adverse events, body height and weight, supine systolic and diastolic blood pressure and radial pulse rate; standard 12-lead electrocardiograms (ECGs) interpreted at eResearchTechnology, Inc (Philadelphia, Pa., USA); standard hematology, biochemistry, and urinalysis parameters; screens for Hepatitis B surface antigen (HBsAg), Hepatitis C antibodies, and HIV; and pregnancy tests.

[4] = tested on: patients with moderate asthma; assay: randomized, double-blind, placebo-controlled ascending multiple oral dose study in patients with moderate asthma; format: in vivo, human; settings: 0.5, 1.25 or 2.5 mg, 10 days
Procedure: A randomized, double-blind, placebo-controlled, parallel, time-lagged, ascending, multiple oral dose study, is performed in patients with moderate asthma: 36 patients in 3 cohorts (12 patients per cohort). In each cohort, patients are randomized between the FTY720 group (9 patients) and placebo (3 patients)
Cohort 1: FTY720 0.5 mg or placebo
Cohort 2: FTY720 1.25 mg or placebo
Cohort 3: FTY720 2.5 mg or placebo
Duration of treatment: 10 days.
Patients continue to take their standard daily dose of long-acting β2 agonist and inhaled corticosteroid throughout the study uninterrupted.
Pulmonary function test (FEV1, FEF25-75): is performed at 12-hour profile on Day 1 (pre-dose, 1, 2, 3, 4, 5, 6, and 12 hr post dose), 6-hour profile at baseline (Day −1) and on Day 10. An additional PFT is done 6 hours post dose on Days 2, 3, and 7.

[5] = tested on: patients with relapsing multiple sclerosis (MS); assay: 6-month, placebo-controlled trial of oral FTY720 in 281 patients with relapsing MS; format: in vivo, human; settings: oral 1.25 or 5.0 mg once-daily, 6 months
[6] = after 36 months of continuous treatment

CCCCCCCCc1ccc(CCC(N)(CO)CO)cc1 [FTY720, 2-amino-2-[2-(4-octylphenyl)ethyl]propane-1,3-diol]
HAQUAMS mean total score ([1]; M6, oral 1.25 mg): 1.9
HAQUAMS total score, mean change from baseline ([1]; M6, oral 1.25 mg): −0.02
HAQUAMS mean total score ([1]; M6, oral 5 mg): 1.9
HAQUAMS total score, mean change from baseline ([1]; M6, oral 5 mg): −0.01
HAQUAMS fatigue/thinking domain, change ([1]; baseline to M6, oral 1.25 mg (placebo +0.14; p=0.030)): −0.05
total HAQUAMS scores ([1]; through M24): Stable
safety profile ([2]; 1.25 mg dose): good safety profile
clinical and MRI activity ([2]; after 3 years of follow-up, continuous oral 1.25 mg or 5.0 mg dose): persistent inhibition of clinical and MRI activity
ARR [2, 6]: 0.20-0.21
patients remained relapse-free [2, 6]: 68-73%
patients free from 6-month sustained disability progression ([2]; month 36): 76-80%
patients free from Gd+ lesions ([2]; month 36, each group): 88-89%
patients free from new T2 lesions ([2]; month 36, each group): 70-78%
discontinuation rate ([2]; months 12-24 of extension): 17.2%
diarrhea reported ([2]; months 24-36): 2.7%
dyspnea reported ([2]; months 24-36): 1.1%
nausea reported ([2]; months 24-36): 2.1%
discontinuation rate ([2]; months 24-36 of extension): 6.0%
lymphocyte count nadir ([3]; adolescents, single dose): 0.37±0.17 ×10^9/L
time of lymphocyte nadir (median) ([3]; adolescents, single dose): 2 days postdose
decrease of mean lymphocyte counts from predose ([3]; adolescents, single dose, predose count 2.64±1.04×10^9/L): 85%
lymphocyte count recovery ([3]; by end-of-study visit on day 28): back to baseline
tolerability ([3]; single dose 0.07 mg/kg oral solution, adolescents): well tolerated
tolerability of treatment initiation [4]: well tolerated
reduction of annualized relapse rate (ARR) versus placebo [5]: > 50%
reduction of cumulative number of gadolinium-enhancing (Gd+) lesions versus placebo [5]: up to 80%
